Data from BindingDB's records for doi:10.7270/Q2QF8R8B (Pcmd, 2008).

The molecules below were run against T1, Cathepsin G (Homo sapiens, UniProt P08311) (assay: IC50 of CTSG protease blockers – biochemical, confirmation, dose response (AID 832)).
T1 sequence (P08311 whole entry): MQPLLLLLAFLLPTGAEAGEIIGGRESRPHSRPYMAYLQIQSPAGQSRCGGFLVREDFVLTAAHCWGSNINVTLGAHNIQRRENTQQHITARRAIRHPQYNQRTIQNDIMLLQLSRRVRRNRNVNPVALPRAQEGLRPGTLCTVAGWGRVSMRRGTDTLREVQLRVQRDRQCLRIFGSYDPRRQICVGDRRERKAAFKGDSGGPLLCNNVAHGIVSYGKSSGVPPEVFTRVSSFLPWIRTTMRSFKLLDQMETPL

Compared with `O=C(c1csc2c1CCCC2)n1cccn1` [1-(4,5,6,7-tetrahydro-1-benzothien-3-ylcarbonyl)-1H-pyrazole], `COc1cc(NC(=O)c2csc3c2CCCC3)ncn1` [MLS000093387] is higher in IC50: 3.61 µM for the first, over 50 µM for the second. The first is the more potent here.

`COc1ccc(-c2cc(C(=O)Nc3c(C)nn(Cc4ccccc4Cl)c3C)no2)cc1` [MLS000087058] and `COc1ccc(OC)c(-c2cc(C(=O)Nc3c(C)nn(Cc4ccccc4)c3C)no2)c1` [5-(2,5-dimethoxyphenyl)-N-[3,5-dimethyl-1-(phenylmethyl)-4-pyrazolyl]-3-isoxazolecarboxamide] are within 1.5-fold of each other in IC50: 44.4 µM for the first, 33 µM for the second.

`COc1ccc(S(=O)(=O)n2nc(OC(=O)c3ccc(C)cc3)cc2N)cc1` [4-Methyl-benzoic acid 5-amino-1-(4-methoxy-benzenesulfonyl)-1H-pyrazol-3-yl ester] and `COc1ccc(S(=O)(=O)n2nc(OC(=O)c3ccccc3)cc2N)cc1` [Benzoic acid 5-amino-1-(4-methoxy-benzenesulfonyl)-1H-pyrazol-3-yl ester] are within 1.5-fold of each other in IC50: 18.3 µM for the first, 20.8 µM for the second.

First: COc1ccc2c(c1)CCc1c(C(=O)NCc3ccc(F)cc3)noc1-2 [MLS000116425]
Second: COc1ccc2c(c1)CCc1c(C(=O)NCc3cccnc3)noc1-2 [7-methoxy-N-(3-pyridinylmethyl)-4,5-dihydrobenzo[g][1,2]benzoxazole-3-carboxamide]
The IC50 of the first is 1.8-fold higher: 2.52 µM for the first, 1.39 µM for the second.

Going from `Cc1cc(OC(=O)c2ccccc2)n(CCC#N)n1` [[2-(2-cyanoethyl)-5-methyl-pyrazol-3-yl] benzoate] to `Cc1nn(C(=O)c2ccccc2)c2c1C(=O)CC(C)(C)C2` [SMR000069174], the IC50 rises from 2.26 µM to 10.8 µM (4.8-fold).

`COCC(C)NC(=O)c1noc2c1CCc1cc(OC)ccc1-2` (stereo not given) [7-methoxy-N-(1-methoxypropan-2-yl)-4,5-dihydrobenzo[g][1,2]benzoxazole-3-carboxamide] and `COCCNC(=O)c1noc2c1CCc1cc(OC)ccc1-2` [7-methoxy-N-(2-methoxyethyl)-4,5-dihydrobenz[g]indoxazene-3-carboxamide] are within 1.5-fold of each other in IC50: 6.4 µM for the first, 4.36 µM for the second.

Compared with `O=C(c1csc2ccccc12)n1cccn1` [MLS000065687], `CCSc1ccccc1C(=O)n1nnc2ccccc21` is 2.3-fold higher in IC50: 4.33 µM for the first, 9.8 µM for the second. The first is the more potent here.

`O=C1CS/C(=N\c2ccc(O)cc2)N1c1ccc(O)cc1` [MLS000027731] and `O=c1[nH]c(CN2CCc3ccccc3C2)nc2ccccc12` [MLS000088906] cannot be ordered by IC50: over 50 µM for the first, over 50 µM for the second.

Going from `Nc1cc(OC(=O)c2cccs2)nn1S(=O)(=O)c1ccccc1` [SMR000021562] to `Cc1ccc(S(=O)(=O)n2nc(OC(=O)c3cccs3)cc2N)cc1`, the IC50 rises from 3.26 µM to 8.07 µM (2.5-fold). The first is the more potent here.

Compared with `COc1ccc(C(=O)n2ccc(C)n2)cc1Br` [(3-bromanyl-4-methoxy-phenyl)-(3-methylpyrazol-1-yl)methanone], `COc1ccc(C(=O)n2cnc(N)n2)cc1` [(3-amino-1,2,4-triazol-1-yl)-(4-methoxyphenyl)methanone] is 32-fold lower in IC50: 41.5 µM for the first, 1.31 µM for the second. The second is the more potent here.

First: COc1ccccc1-c1cc(C(=O)Nc2cccnc2)no1 [5-(2-methoxyphenyl)-N-(3-pyridinyl)-3-isoxazolecarboxamide]
Second: COc1ccccc1-c1cc(C(=O)NC(C)c2ccccc2)no1 (stereo not given) [5-(2-methoxyphenyl)-N-(1-phenylethyl)-1,2-oxazole-3-carboxamide]
The IC50 of the first is 2-fold higher: 43.2 µM for the first, 21.8 µM for the second. The second is the more potent here.

First: COc1ccc(CNC(=O)c2cc(-c3ccc(OC)c(OC)c3)on2)cc1 [5-(3,4-dimethoxyphenyl)-N-(4-methoxybenzyl)isoxazole-3-carboxamide]
Second: COc1ccc(-c2cc(C(=O)NCc3ccc(Cl)cc3)no2)cc1OC [MLS000087122]
The IC50 of the first is higher: over 50 µM for the first, 43.2 µM for the second.

Going from `O=C(NCCN1CCOCC1)c1noc2c1CCc1ccccc1-2` [MLS000087427] to `O=C(c1noc2c1CCc1ccccc1-2)N1CCOCC1` [3-(morpholin-4-ylcarbonyl)-4,5-dihydronaphtho[2,1-d]isoxazole], the IC50 rises from 5.32 µM to over 50 µM.

Going from `O=C(c1ccc2c(c1)OCO2)n1nnc2ccccc21` to `C#CCOC(=O)c1ccccc1C(=O)n1nnc2ccccc21`, the IC50 rises from 0.957 µM to 3.97 µM (4.1-fold). The first is the more potent here.

Compared with `COc1ccc(C(=O)n2nc(-c3ccc(Cl)cc3)nc2N)cc1OC` [SMR000074176], `COc1ccc(C(=O)n2nc(-c3ccc(C)cc3)nc2N)cc1OC` is higher in IC50: 32.2 µM for the first, over 50 µM for the second.

First: COc1ccc(S(=O)(=O)n2nc(OC(=O)c3cccs3)cc2N)cc1 [2-thiophenecarboxylic acid [5-amino-1-(4-methoxyphenyl)sulfonyl-3-pyrazolyl] ester]
Second: COc1ccc(C2C(C(=O)c3cccs3)C(=O)C(=O)N2c2nncs2)cc1 (stereo not given)
The IC50 of the first is lower: 2.52 µM for the first, over 50 µM for the second.

Going from `O=C(c1noc2c1CCc1ccccc1-2)N1CCc2ccccc2C1` [3-(3,4-dihydroisoquinolin-2(1H)-ylcarbonyl)-4,5-dihydronaphtho[2,1-d]isoxazole] to `COc1ccc2c(c1)CCc1c(C(=O)N3CCc4ccccc4C3)noc1-2` [3,4-dihydro-1H-isoquinolin-2-yl-(7-methoxy-4,5-dihydrobenz[g]indoxazen-3-yl)methanone], the IC50 rises from 19.6 µM to over 50 µM.

First: CN1CC2(Cc3c1ccc1ccccc31)C(=O)OC(C)(C)OC2=O [2',2',4-trimethylspiro[1,3-dihydrobenzo[f]quinoline-2,5'-1,3-dioxane]-4',6'-dione]
Second: O=c1oc(-c2ccco2)nc2ccccc12 [2-Furan-2-yl-benzo[d][1,3]oxazin-4-one]
The IC50 of the first is 29-fold higher: 23.3 µM for the first, 0.793 µM for the second. The second is the more potent here.

Compared with `COc1ccccc1/N=C/c1nc(-c2ccccc2)oc1OC(C)=O` [SMR000039734], `COc1cccc(-c2cc(C(=O)NCCc3ccccc3)no2)c1` [5-(3-methoxyphenyl)-N-(2-phenylethyl)-1,2-oxazole-3-carboxamide] is higher in IC50: 37.9 µM for the first, over 50 µM for the second.

Going from `COC(=O)c1sc(N2C(=O)C(=O)C(C(=O)c3ccc(C)o3)C2c2ccc(F)cc2)nc1C` (stereo not given) [2-[2-(4-fluorophenyl)-4-hydroxy-3-[(5-methyl-2-furanyl)-oxomethyl]-5-oxo-2H-pyrrol-1-yl]-4-methyl-5-thiazolecarboxylic acid methyl ester] to `COc1ccc2c(c1)CCc1c(C(=O)Nc3ccn(Cc4ccc(C)cc4)n3)noc1-2` [7-methoxy-N-[1-(4-methylbenzyl)-1H-pyrazol-3-yl]-4,5-dihydronaphtho[2,1-d]isoxazole-3-carboxamide], the IC50 falls from over 50 µM to 2.91 µM.

`CCOC(=O)c1ccc(NC(=O)CS(=O)(=O)c2cn(CC)c3ccccc23)cc1` [4-[[2-(1-ethylindol-3-yl)sulfonylacetyl]amino]benzoic acid ethyl ester] and `Cc1ccc(NC(=O)Cc2nn(C)c(=O)c3ccccc23)cc1F` [MLS000047015] cannot be ordered by IC50: over 50 µM for the first, over 50 µM for the second.

`Cc1cccc(-n2nnc(C(=O)Nc3ccc(F)cc3)c2N)c1` [5-amino-N-(4-fluorophenyl)-1-(3-methylphenyl)-1H-1,2,3-triazole-4-carboxamide] and `Cc1cc(NC(=O)c2noc3c2CCc2ccccc2-3)n(-c2ccccc2)n1` [MLS000116423] cannot be ordered by IC50: over 50 µM for the first, over 50 µM for the second.

`CC[C@@H](C)[C@H](NC(=O)OC(C)(C)C)c1nnc(S(=O)(=O)Cc2cc(C)ccc2C)o1` [MLS000042033] and `COc1ccc(C(=O)n2nc(-c3ccco3)nc2SC)cc1OC` [(3,4-dimethoxyphenyl)-[3-(2-furanyl)-5-(methylthio)-1,2,4-triazol-1-yl]methanone] are within 1.5-fold of each other in IC50: 20.2 µM for the first, 22 µM for the second.

`COc1ccc2c(c1)CCc1c(C(=O)NCCCn3ccnc3)noc1-2` [MLS000087439] and `O=C(NCCCn1ccnc1)c1noc2c1CCc1ccccc1-2` [N-[3-(1-imidazolyl)propyl]-4,5-dihydrobenzo[g][1,2]benzoxazole-3-carboxamide] are within 1.5-fold of each other in IC50: 4.13 µM for the first, 3.73 µM for the second.

Compared with `Cc1cnc(C(=O)Nc2ccccc2-c2ccc(C)o2)cn1` [5-Methyl-pyrazine-2-carboxylic acid [2-(5-methyl-furan-2-yl)-phenyl]-amide], `COc1ccccc1-c1cc(C(=O)NCc2ccc(Cl)cc2)no1` [MLS000087096] is lower in IC50: over 50 µM for the first, 11.1 µM for the second.

`COc1cc2nc(-c3cccs3)oc(=O)c2cc1OC` [6,7-dimethoxy-2-(2-thienyl)-3,1-benzoxazin-4-one] and `Cc1nc2scc(-c3cccs3)c2c(=O)o1` [2-methyl-5-(2-thienyl)thieno[2,3-d][1,3]oxazin-4-one] cannot be ordered by IC50: over 50 µM for the first, over 50 µM for the second.

First: Nc1nc(C(=O)N2CCOCC2)nn1C(=O)c1ccc(Cl)cc1 [(5-azanyl-3-morpholin-4-ylcarbonyl-1,2,4-triazol-1-yl)-(4-chlorophenyl)methanone]
Second: O=C(CCSc1nccn1Cc1ccccc1)N1CCOCC1 [1-(4-morpholinyl)-3-[[1-(phenylmethyl)-2-imidazolyl]thio]-1-propanone]
The IC50 of the first is lower: 4.51 µM for the first, over 50 µM for the second. The first is the more potent here.

Going from `CSc1nc(-c2ccco2)nn1C(=O)c1cccs1` [[3-(furan-2-yl)-5-methylsulfanyl-1,2,4-triazol-1-yl]-thiophen-2-ylmethanone] to `Nc1nncn1C(=O)c1cccs1` [(3-Amino-[1,2,4]triazol-4-yl)-thiophen-2-yl-methanone], the IC50 rises from 1.78 µM to 28.4 µM (16-fold).

Compared with `COc1ccccc1-c1c(C#N)c(SCC(=O)N2CCCC2)nc(C)c1C(N)=O` [SMR000061200], `Cc1cc(NC(=O)c2noc3c2CCc2ccccc2-3)no1` [MLS000116422] is lower in IC50: over 50 µM for the first, 4.25 µM for the second. The second is the more potent here.

`Cc1nn(Cc2ccc(Cl)c(Cl)c2)c(C)c1NC(=O)c1cc(-c2ccc3c(c2)OCO3)on1` [5-(1,3-benzodioxol-5-yl)-N-[1-(3,4-dichlorobenzyl)-3,5-dimethyl-1H-pyrazol-4-yl]isoxazole-3-carboxamide] and `COc1ccc2c(c1)CCc1c(C(=O)Nc3ccc(OC)c(OC)c3)noc1-2` [MLS000087452] are within 1.5-fold of each other in IC50: 18.6 µM for the first, 14.5 µM for the second.

Going from `O=C(NCCc1ccccc1)c1noc2c1CCc1ccccc1-2` [MLS000087424] to `COc1ccc2c(c1)CCc1c(C(=O)NC3CCCCC3)noc1-2` [MLS000087437], the IC50 falls from 2.48 µM to 0.631 µM (3.9-fold). The second is the more potent here.

`Cc1ccsc1C=c1sc2ncnn2c1=O` [5-[(3-methyl-2-thienyl)methylene][1,3]thiazolo[3,2-b][1,2,4]triazol-6(5H)-one] and `Cc1cc(C)cc(C(=O)n2cnnc2N)c1` are within 1.5-fold of each other in IC50: 4.66 µM for the first, 3.88 µM for the second.

Work on `O=C1CCCC(=O)C1=CNCCc1ccccc1` [MLS000108318] yielded an IC50 of over 50 µM.
